Earlier results, collected in patent US20070092575A1, “Compositions for administering RNAIII-inhibiting peptides” (priority 2005, published 2007).
Like-named read-outs stand apart in the source and are kept apart here. Ends that are not written are not given here.

Assays:
S. aureus MS = conditions: Osteomyelitis, rabbit, strain MS, +RIP
S. aureus LS-1 [1] = conditions: Sepsis, mouse, strain LS-1, +RIP
S. aureus LS-1 [2] = conditions: Arthritis, mouse, strain LS-1, +RIP
S. aureus 8325-4 = conditions: Keratitis, rabbit, strain 8325-4, +RIP
[3] = tested on: S. aureus Newbould 305, AE-1; conditions: Mastitis, cow, strain Newbould/AE-1, +RIP
[4] = tested on: S. aureus strain Smith diffuse; conditions: Cellulitis/sepsis, mouse, +RIP
[5] = tested on: MRSA, MRSE, VISA, VISE, GISA, GISE, MSSA, MSSE; conditions: Graft injection, rat, +RIP

YSPWTNF(-NH2) (YSPWTNF-NH2) [RIP, amide form of a synthetic RIP analogue]
% animals disease free (S. aureus MS): 58%
% animals disease free (S. aureus LS-1 [1]): 44%
% animals disease free (S. aureus LS-1 [2]): 60%
% animals disease free (S. aureus 8325-4): 40%
% animals disease free [3]: 70-100%
% animals disease free [4]: Up to 100%
% animals disease free [5]: Up to 100%
